Measured values published in patent US11634391B2, “Compounds which are inhibitors of Notum” (UCL BUSINESS LTD, priority 2018, dated 2023).

Target: notum carboxyesterase enzyme (Homo sapiens (Human), UniProt Q6P988)
Experiment: Biochemical Notum Enzymatic Activity Assay (OPTS substrate, fluorescence)
Settings: 2 μM OPTS solution, 2.38 nM notum enzyme solution, 1 hour incubation at room temperature, fluorescence ex 485 nm / em 520 nm; n≥2
Excerpt: Plate layout and measured fluorescence values were input into Dotmatics Studies data management tool.

notum carboxyesterase enzyme, sequence (Q6P988 20-496): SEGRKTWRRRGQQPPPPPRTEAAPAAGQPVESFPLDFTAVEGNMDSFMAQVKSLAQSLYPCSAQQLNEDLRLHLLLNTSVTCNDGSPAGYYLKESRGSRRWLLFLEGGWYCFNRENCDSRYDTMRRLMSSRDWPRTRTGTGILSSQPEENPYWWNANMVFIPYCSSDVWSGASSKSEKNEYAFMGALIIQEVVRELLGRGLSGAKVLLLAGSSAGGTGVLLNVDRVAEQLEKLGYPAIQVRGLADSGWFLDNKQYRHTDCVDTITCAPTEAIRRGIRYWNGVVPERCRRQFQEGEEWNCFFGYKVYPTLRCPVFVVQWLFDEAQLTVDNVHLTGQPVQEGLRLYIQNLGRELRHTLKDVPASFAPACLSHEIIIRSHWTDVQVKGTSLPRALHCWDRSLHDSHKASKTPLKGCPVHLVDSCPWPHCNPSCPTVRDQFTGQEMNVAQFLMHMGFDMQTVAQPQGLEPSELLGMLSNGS

| IC50 [nM] | SMILES |
| --- | --- |
| 149 | OCCc1cn(-c2ccc(Cl)c(C(F)(F)F)c2)nn1 [Compound 303, 2-[1-[4-chloro-3-(trifluoromethyl)phenyl]triazol-4-yl]ethanol] |
| 2230 | OCc1cn(-c2cccc(C(F)(F)F)c2)nn1 [Compound 275, (1-(3-(trifluoromethyl)phenyl)-1H-1,2,3-triazol-4-yl)methanol] |
| 2940 | NCc1nnc(-c2ccccc2)o1 [Compound 140, (5-phenyl-1,3,4-oxadiazol-2-yl)methanamine] |
| 5690 | OCc1cn(-c2ccc(Cl)c(OCc3ccccc3)c2)nn1 [Compound 17, (1-(3-(benzyloxy)-4-chlorophenyl)-1H-1,2,3-triazol-4-yl)methanol] |
